Measurements published in patent publication US12331040B2 (Karyopharm Therapeutics Inc., priority 2013, dated 2025).
Like-named read-outs stand apart in the source and are kept apart here.

Columns and labels:
Assay in all cases: MTT cell proliferation assay
Type in all cases: cell-based
[1] = test system: 3T3 cells; details: Mus musculus, NIH3T3, approximately 64-72 hours incubation
How it was run: (§1)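 5,000-10,000 cells/well, overnight attach; 8 conc., 1 nM–30 μM; MTT ~4 h; formazan solubilized, OD 490 nm; % inhibition = (1−(ODo/OD))×100 vs neg. control; mostly duplicate, mean±SE.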

[2] = test system: Z138 cells; details: Homo sapiens, Z-138, Z138 cells, approximately 64-72 hours incubation
How it was run: as §1

[3] = test system: MS751 cells; details: Homo sapiens, MS751, MS751 cells, approximately 64-72 hours incubation
How it was run: as §1

[4] = read-out: MTT Assay IC50 MS-751
[5] = read-out: MTT Assay IC50, Z-138
[6] = read-out: MTT Assay IC50, MS-751

Row | Structure (SMILES) | IC50 ([1]; read-out: MTT Assay IC50 3T3) | IC50 ([2]; read-out: MTT Assay IC50 Z-138) | IC50 [3, 4] | IC50 ([1]; read-out: MTT Assay IC50, 3T3) | IC50 [2, 5] | IC50 [3, 6]
1 | COc1cc(-c2ccc(C(=O)N3CCNCC3)cn2)cc2cc(CNC(=O)/C=C/c3ccc(N)nc3)oc12 [Compound 641, (E)-3-(6-aminopyridin-3-yl)-N-((7-methoxy-5-(5-(piperazine-1-carbonyl)pyridin-2-yl)benzofuran-2-yl)methyl)acrylamide] | > 10 µM | < 0.1 µM | < 0.1 µM | – | – | –
2 | Nc1ccc(/C=C/C(=O)NCc2cc3cc(-c4ccc(C(=O)N5CC6(C5)CC(F)(F)C6)cn4)cc(C(F)(F)F)c3o2)cn1 [Compound 661, (E)-3-(6-aminopyridin-3-yl)-N-((5-(5-(6,6-difluoro-2-azaspiro[3.3]heptane-2-carbonyl)pyridin-2-yl)-7-(trifluoromethyl)benzofuran-2-yl)methyl)acrylamide] | – | – | – | > 10 µM | 0.1 to 5 µM | 0.1 to 5 µM
3 | COc1ccc(-c2ccc(S(=O)(=O)N3CCOCC3)cc2)c2cc(CNC(=O)/C=C/c3ccc(N)nc3)oc12 [Compound 554, (E)-3-(6-aminopyridin-3-yl)-N-((7-methoxy-4-(4-(morpholinosulfonyl)phenyl)benzofuran-2-yl)methyl)acrylamide] | > 10 µM | < 0.1 µM | 0.1 to 5 µM | – | – | –
4 | O=C(/C=C/c1cccnc1)NCc1cc2cc(-c3ccc(C(=O)N4CCC(F)(F)CC4)cn3)cc(-c3ccc(F)cc3)c2o1 [Compound 719, (E)-N-((5-(5-(4,4-difluoropiperidine-1-carbonyl)pyridin-2-yl)-7-(4-fluorophenyl)benzofuran-2-yl)methyl)-3-(pyridin-3-yl)acrylamide] | – | – | – | < 0.1 µM | < 0.1 µM | < 0.1 µM
5 | Nc1ccc(/C=C/C(=O)NCc2cc3cc(-c4ncc(C(=O)N5CCC(F)(F)CC5)cc4F)cc(-c4ccc(F)cc4)c3o2)cn1 [Compound 764, (E)-3-(6-aminopyridin-3-yl)-N-((5-(5-(4,4-difluoropiperidine-1-carbonyl)-3-fluoropyridin-2-yl)-7-(4-fluorophenyl)benzofuran-2-yl)methyl)acrylamide] | – | – | – | 0.1 to 5 µM | < 0.1 µM | < 0.1 µM
6 | Nc1ccc(/C=C/C(=O)NCc2coc3c(Cl)cc(-c4ccc(C(=O)N5CCC(F)(F)CC5)cn4)cc23)cn1 [Compound 766, (E)-3-(6-aminopyridin-3-yl)-N-((7-chloro-5-(5-(4,4-difluoropiperidine-1-carbonyl)pyridin-2-yl)benzofuran-3-yl)methyl)acrylamide] | – | – | – | 5 to 10 µM | 0.1 to 5 µM | 0.1 to 5 µM
7 | Nc1ccc(/C=C/C(=O)NCc2cc3cc(-c4ccc(S(=O)(=O)N5CC[C@@H](F)C5)cc4)cc(Cl)c3o2)cn1 [Compound 527, (R,E)-3-(6-aminopyridin-3-yl)-N-((7-chloro-5-(4-(3-fluoropyrrolidin-1-ylsulfonyl)phenyl)benzofuran-2-yl)methyl)acrylamide] | > 10 µM | 0.1 to 5 µM | 0.1 to 5 µM | – | – | –
8 | Nc1ccc(/C=C/C(=O)NCc2cc3cc(-c4ccc(S(=O)(=O)N5CC[C@H](F)C5)cc4)cc(Cl)c3o2)cn1 [Compound 643, (S,E)-3-(6-aminopyridin-3-yl)-N-((7-chloro-5-(4-(3-fluoropyrrolidin-1-ylsulfonyl)phenyl)benzofuran-2-yl)methyl)acrylamide] | > 10 µM | 0.1 to 5 µM | 0.1 to 5 µM | – | – | –
9 | Nc1ccc(/C=C/C(=O)NCc2cc3cc(-c4ccc(C(=O)N5CC(F)(F)C5)cc4)cc(C(F)(F)F)c3o2)cn1 [Compound 520, (E)-3-(6-aminopyridin-3-yl)-N-((5-(4-(3,3-difluoroazetidine-1-carbonyl)phenyl)-7-(trifluoromethyl)benzofuran-2-yl)methyl)acrylamide] | > 10 µM | 0.1 to 5 µM | 0.1 to 5 µM | – | – | –
10 | CC1(C)C2CN(C(=O)c3ccc(-c4cc(C(F)(F)F)c5oc(CNC(=O)/C=C/c6ccc(N)nc6)cc5c4)nc3)CC21 (stereo not drawn) [Compound 631, (E)-3-(6-aminopyridin-3-yl)-N-((5-(5-(6,6-dimethyl-3-azabicyclo[3.1.0]hexane-3-carbonyl)pyridin-2-yl)-7-(trifluoromethyl)benzofuran-2-yl)methyl)acrylamide] | > 10 µM | 0.1 to 5 µM | 0.1 to 5 µM | – | – | –
11 | Nc1ccc(/C=C/C(=O)NCc2cc3cc(-c4ccc(C(=O)N5CCC(F)(F)CC5)cc4)cc(-c4cc(Cl)cc(Cl)c4)c3o2)cn1 [Compound 700, (E)-3-(6-aminopyridin-3-yl)-N-((7-(3,5-dichlorophenyl)-5-(4-(4,4-difluoropiperidine-1-carbonyl)phenyl)benzofuran-2-yl)methyl)acrylamide] | – | – | – | 0.1 to 5 µM | < 0.1 µM | < 0.1 µM
12 | Nc1ccc(/C=C/C(=O)NCc2cc3cc(-c4ccc(C(=O)N5CCC(F)CC5)cc4)cc(Cl)c3o2)cn1 [Compound 598, (E)-3-(6-aminopyridin-3-yl)-N-((7-chloro-5-(4-(4-fluoropiperidine-1-carbonyl)phenyl)benzofuran-2-yl)methyl)acrylamide] | > 10 µM | 0.1 to 5 µM | 0.1 to 5 µM | – | – | –
13 | Nc1ccc(/C=C/C(=O)NCc2cc3cc(-c4ccc(S(=O)(=O)N5CCOCC5)cc4)cc(C(F)(F)F)c3o2)cn1 [Compound 531, (E)-3-(6-aminopyridin-3-yl)-N-((5-(4-(morpholinosulfonyl)phenyl)-7-(trifluoromethyl)benzofuran-2-yl)methyl)acrylamide] | 0.1 to 5 µM | 0.1 to 5 µM | < 0.1 µM | – | – | –
14 | CC1(C)CN(C(=O)c2ccc(-c3cc(C(F)(F)F)c4oc(CNC(=O)/C=C/c5ccc(N)nc5)cc4c3)cc2)C1 [Compound 526, (E)-3-(6-aminopyridin-3-yl)-N-((5-(4-(3,3-dimethylazetidine-1-carbonyl)phenyl)-7-(trifluoromethyl)benzofuran-2-yl)methyl)acrylamide] | > 10 µM | 0.1 to 5 µM | 0.1 to 5 µM | – | – | –
15 | Nc1ccc(/C=C/C(=O)NCc2nc3cc(-c4ccc(C(=O)N5CCOCC5)cc4)cc(Cl)c3o2)cn1 [Compound 501, (E)-3-(6-aminopyridin-3-yl)-N-((7-chloro-5-(4-(morpholine-4-carbonyl)phenyl)benzo[d]oxazol-2-yl)methyl)acrylamide] | > 10 µM | 0.1 to 5 µM | 0.1 to 5 µM | – | – | –
16 | Nc1ccc(/C=C/C(=O)NCc2cc3cc(-c4ccc(C(=O)N5CCC(F)(F)CC5)cc4F)cc(-c4ccc(C(F)(F)F)cc4)c3o2)cn1 [Compound 749, (E)-3-(6-aminopyridin-3-yl)-N-((5-(4-(4,4-difluoropiperidine-1-carbonyl)-2-fluorophenyl)-7-(4-(trifluoromethyl)phenyl)benzofuran-2-yl)methyl)acrylamide] | – | – | – | > 10 µM | 0.1 to 5 µM | > 10 µM
17 | O=C(/C=C/c1cccnc1)NCc1cc2cc(-c3ccc(C(=O)N4CCC(F)(F)CC4)cc3)cc(OC(F)(F)F)c2o1 [Compound 687, (E)-N-((5-(4-(4,4-difluoropiperidine-1-carbonyl)phenyl)-7-(trifluoromethoxy)benzofuran-2-yl)methyl)-3-(pyridin-3-yl)acrylamide] | – | – | – | 0.1 to 5 µM | < 0.1 µM | < 0.1 µM
18 | Nc1ccc(/C=C/C(=O)NCc2cc3cc(-c4ccc(C(=S)N5CCC(F)(F)CC5)cc4F)cc(-c4ccc(F)cc4)c3o2)cn1 [Compound 758, (E)-3-(6-aminopyridin-3-yl)-N-((5-(4-(4,4-difluoropiperidine-1-carbonothioyl)-2-fluorophenyl)-7-(4-fluorophenyl)benzofuran-2-yl)methyl)acrylamide] | – | – | – | > 10 µM | < 0.1 µM | < 0.1 µM
19 | O=C(/C=C/c1cccnc1)NCc1cc2cc(-c3ccc(C(=O)N4CCC(F)(F)CC4)cn3)cc(C(F)(F)F)c2o1 [Compound 671, (E)-N-((5-(5-(4,4-difluoropiperidine-1-carbonyl)pyridin-2-yl)-7-(trifluoromethyl)benzofuran-2-yl)methyl)-3-(pyridin-3-yl)acrylamide] | – | – | – | 0.1 to 5 µM | 0.1 to 5 µM | 0.1 to 5 µM
20 | Nc1ccc(/C=C/C(=O)NCc2cc3cc(-c4ccc(C(O)c5ccc(F)cc5)cn4)cc(-c4ccc(F)cc4)c3o2)cn1 (stereo not drawn) [Compound 704, (E)-3-(6-aminopyridin-3-yl)-N-((7-(4-fluorophenyl)-5-(5-((4-fluorophenyl)(hydroxy)methyl)pyridin-2-yl)benzofuran-2-yl)methyl)acrylamide] | – | – | – | > 10 µM | 0.1 to 5 µM | 0.1 to 5 µM
21 | Nc1ccc(/C=C/C(=O)NCc2cc3cc(-c4ncc(C(=O)N5CCNCC5)cn4)cc(C(F)(F)F)c3o2)cn1 [Compound 590, (E)-3-(6-aminopyridin-3-yl)-N-((5-(5-(piperazine-1-carbonyl)pyrimidin-2-yl)-7-(trifluoromethyl)benzofuran-2-yl)methyl)acrylamide] | > 10 µM | 0.1 to 5 µM | 0.1 to 5 µM | – | – | –
22 | O=C(/C=C/c1cccnc1)NCc1cc2cc(-c3ccc(C(=O)N4CCC(F)(F)CC4)cc3F)cc(C(F)(F)F)c2o1 [Compound 684, (E)-N-((5-(4-(4,4-difluoropiperidine-1-carbonyl)-2-fluorophenyl)-7-(trifluoromethyl)benzofuran-2-yl)methyl)-3-(pyridin-3-yl)acrylamide] | – | – | – | > 10 µM | 0.1 to 5 µM | 0.1 to 5 µM
23 | Nc1ccc(/C=C/C(=O)NCc2cc3cc(-c4ccc(C(=O)N5CCC(F)(F)CC5)cc4)cc(-c4c(F)cc(F)cc4F)c3o2)cn1 [Compound 697, (E)-3-(6-aminopyridin-3-yl)-N-((5-(4-(4,4-difluoropiperidine-1-carbonyl)phenyl)-7-(2,4,6-trifluorophenyl)benzofuran-2-yl)methyl)acrylamide] | – | – | – | 0.1 to 5 µM | < 0.1 µM | < 0.1 µM
